From US20250353891A1 (MEDIMMUNE LIMITED, priority 2022, published 2025)
Starred links: 1 amine or outer side, 2 acyl side, 3 side chain; linkers in the order of their positions; H or OH if unused. Non-standard residues stand in square brackets, D forms with d. Residues, ends and D or L forms follow the SMILES beside them. Groups on a side chain read outwards from the residue. *: point of attachment. C18 diacid = O=C(O)CCCCCCCCCCCCCCCCC(=O)*; γGlu = O=C(O)[C@H](CCC(=O)[*:2])N[*:1]; αMeF = C[C@](N)(Cc1ccccc1)C(=O)O; AEEA = NCCOCCOCC(=O)O; Aib = CC(C)(N)C(=O)O

Assays:
[1] = target: human GLP-1 receptor (hGLP-1R) (Homo sapiens, UniProt P43220); experiment: cAMP production (HTRF) in CHO cells expressing hGLP-1R; assay type: cell-based; set-up: expressed in transfected cells; details: for EC50: Table 6, peptides modified at position 17, cAMP in CHO hGLP-1R cells, geometric mean, read-out: hGLP-1R EC50; for % Relative Potency Ratio: Table 6, % GLP-1R activity relative to GLP-1 / % GlucR activity relative to glucagon
Procedure, shortened: (§1)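 Cells were resuspended in assay buffer at batch-optimized density, typically 1×10^5 cells/mL for hGLP-1R and 2×10^5 cells/mL for hGCGR. After 30 min incubation at room temperature with compound, cAMP was measured by two-step HTRF. EC50 values came from 4-parameter logistic fits of % Delta F.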

[2] = target: human glucagon receptor (hGCGR) (Homo sapiens, UniProt P47871); experiment: cAMP production (HTRF) in CHO cells expressing hGCGR; assay type: cell-based; set-up: expressed in transfected cells; details: Table 6, peptides modified at position 17; cAMP in CHO hGCGR cells; geometric mean; read-out: hGluc-R EC50
Procedure, shortened: as §1

Chain of human glucagon receptor (hGCGR) (P47871 26-477): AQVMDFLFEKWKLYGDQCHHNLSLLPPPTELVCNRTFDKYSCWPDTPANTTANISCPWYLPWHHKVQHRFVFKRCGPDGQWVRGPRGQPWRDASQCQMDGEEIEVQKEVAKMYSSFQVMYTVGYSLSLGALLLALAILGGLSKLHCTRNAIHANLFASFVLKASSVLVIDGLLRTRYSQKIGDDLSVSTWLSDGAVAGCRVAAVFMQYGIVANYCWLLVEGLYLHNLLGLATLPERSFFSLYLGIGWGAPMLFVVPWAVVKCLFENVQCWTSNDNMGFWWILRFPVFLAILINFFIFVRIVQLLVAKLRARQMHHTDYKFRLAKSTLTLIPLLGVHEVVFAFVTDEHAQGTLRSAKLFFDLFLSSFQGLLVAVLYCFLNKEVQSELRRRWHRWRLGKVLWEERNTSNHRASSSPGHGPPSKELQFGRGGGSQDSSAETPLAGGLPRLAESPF
Chain of human GLP-1 receptor (hGLP-1R) (P43220 24-463): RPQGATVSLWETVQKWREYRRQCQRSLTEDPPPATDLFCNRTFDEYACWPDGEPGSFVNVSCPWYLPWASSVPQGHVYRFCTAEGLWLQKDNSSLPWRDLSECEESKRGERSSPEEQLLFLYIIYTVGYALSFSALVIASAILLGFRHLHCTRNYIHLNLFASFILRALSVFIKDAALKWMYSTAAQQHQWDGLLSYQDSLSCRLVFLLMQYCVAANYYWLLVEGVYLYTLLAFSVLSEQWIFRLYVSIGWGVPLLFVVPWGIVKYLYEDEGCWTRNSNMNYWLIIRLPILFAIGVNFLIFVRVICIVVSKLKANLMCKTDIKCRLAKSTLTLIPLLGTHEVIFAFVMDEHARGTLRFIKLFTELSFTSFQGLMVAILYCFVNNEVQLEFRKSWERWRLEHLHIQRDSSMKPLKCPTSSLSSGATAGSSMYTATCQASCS

Compound: CC(C)C[C@H](NC(=O)[C@H](Cc1c[nH]c2ccccc12)NC(=O)[C@H](CCC(N)=O)NC(=O)[C@@H](NC(=O)[C@H](Cc1ccccc1)NC(=O)[C@H](CC(=O)O)NC(=O)[C@H](CCC(=O)O)NC(=O)[C@H](C)NC(=O)[C@H](CCCNC(=N)N)NC(=O)[C@H](CCCCNC(=O)COCCOCCNC(=O)COCCOCCNC(=O)CC[C@H](NC(=O)CCCCCCCCCCCCCCCCC(=O)O)C(=O)O)NC(=O)[C@H](CO)NC(=O)[C@H](CC(=O)O)NC(=O)[C@H](CC(C)C)NC(=O)[C@](C)(Cc1ccccc1)NC(=O)[C@H](CCCCN)NC(=O)[C@H](CO)NC(=O)[C@@H](NC(=O)[C@H](CC(=O)O)NC(=O)[C@H](CO)NC(=O)[C@@H](NC(=O)[C@H](Cc1ccccc1)NC(=O)[C@@H](NC(=O)CNC(=O)[C@H](CCC(N)=O)NC(=O)C(C)(C)NC(=O)[C@@H](N)Cc1c[nH]cn1)[C@@H](C)O)[C@@H](C)O)C(C)C)C(C)C)C(=O)N[C@@H](CC(C)C)C(=O)NC(C)(C)C(=O)N[C@H](C(=O)O)[C@@H](C)O [Peptide 37] (H-H[Aib]QGTFTSDVSK[αMeF]LDSK([AEEA-AEEA-γGlu-C18 diacid])RAEDFVQWLL[Aib]T-OH)
- EC50 [1]: 68.6 pM
- % Relative Potency Ratio [1]: 79.2
- EC50 [2]: 2750 pM

Compound: CC(C)C[C@H](NC(=O)[C@H](Cc1c[nH]c2ccccc12)NC(=O)[C@H](CCC(=O)O)NC(=O)[C@@H](NC(=O)[C@H](Cc1ccccc1)NC(=O)[C@H](CC(=O)O)NC(=O)[C@H](CCC(N)=O)NC(=O)[C@H](C)NC(=O)[C@H](CCCNC(=N)N)NC(=O)[C@H](CCCCNC(=O)COCCOCCNC(=O)COCCOCCNC(=O)CC[C@H](NC(=O)CCCCCCCCCCCCCCCCC(=O)O)C(=O)O)NC(=O)[C@H](CO)NC(=O)[C@H](CC(=O)O)NC(=O)[C@H](CC(C)C)NC(=O)[C@](C)(Cc1ccccc1)NC(=O)[C@H](CCCCN)NC(=O)[C@H](CO)NC(=O)[C@@H](NC(=O)[C@H](CC(=O)O)NC(=O)[C@H](CO)NC(=O)[C@@H](NC(=O)[C@H](Cc1ccccc1)NC(=O)[C@@H](NC(=O)CNC(=O)[C@H](CCC(N)=O)NC(=O)C(C)(C)NC(=O)[C@@H](N)Cc1c[nH]cn1)[C@@H](C)O)[C@@H](C)O)C(C)C)C(C)C)C(=O)N[C@@H](CC(C)C)C(=O)NC(C)(C)C(=O)N[C@H](C(=O)O)[C@@H](C)O [Peptide 38] (H-H[Aib]QGTFTSDVSK[αMeF]LDSK([AEEA-AEEA-γGlu-C18 diacid])RAQDFVEWLL[Aib]T-OH; N-terminus assumed)
- EC50 [1]: 75.6 pM
- % Relative Potency Ratio [1]: 11.6
- EC50 [2]: 441 pM

Compound: CC(C)C[C@H](NC(=O)[C@H](Cc1c[nH]c2ccccc12)NC(=O)[C@H](CCCNC(=N)N)NC(=O)[C@@H](NC(=O)[C@H](Cc1ccccc1)NC(=O)[C@H](CC(=O)O)NC(=O)[C@H](CCC(N)=O)NC(=O)[C@H](C)NC(=O)[C@H](CCCNC(=N)N)NC(=O)[C@H](CCCCNC(=O)COCCOCCNC(=O)COCCOCCNC(=O)CC[C@H](NC(=O)CCCCCCCCCCCCCCCCC(=O)O)C(=O)O)NC(=O)[C@H](CO)NC(=O)[C@H](CC(=O)O)NC(=O)[C@H](CC(C)C)NC(=O)[C@](C)(Cc1ccccc1)NC(=O)[C@H](CCCCN)NC(=O)[C@H](CO)NC(=O)[C@@H](NC(=O)[C@H](CC(=O)O)NC(=O)[C@H](CO)NC(=O)[C@@H](NC(=O)[C@H](Cc1ccccc1)NC(=O)[C@@H](NC(=O)CNC(=O)[C@H](CCC(N)=O)NC(=O)C(C)(C)NC(=O)[C@@H](N)Cc1c[nH]cn1)[C@@H](C)O)[C@@H](C)O)C(C)C)C(C)C)C(=O)N[C@@H](CC(C)C)C(=O)NC(C)(C)C(=O)N[C@H](C(=O)N[C@@H](CCC(=O)O)C(=O)O)[C@@H](C)O [Peptide 39] (H-H[Aib]QGTFTSDVSK[αMeF]LDSK([AEEA-AEEA-γGlu-C18 diacid])RAQDFVRWLL[Aib]TE-OH; N-terminus assumed)
- EC50 [1]: 76.1 pM
- % Relative Potency Ratio [1]: 5.0
- EC50 [2]: 194 pM
